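Step 1: Grow cells in 96-well plates. Step 2: Expose to compound for 48 hours at 5 concentrations. Step 3: Interpolate endpoints linearly; if unreached, use highest concentration. GI50 is the concentration that inhibits growth by half. Definition used: TGI = concentration required for complete inhibition of growth.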
Key:
Test in all cases: NCI-60 cell line screen, 48 h
SK-MEL-5 melanoma = system: SK-MEL-5 melanoma
SK-OV-3 ovarian = system: SK-OV-3 ovarian
A498 renal = system: A498 renal
UACC-257 melanoma = system: UACC-257 melanoma
DU-145 prostate = system: DU-145 prostate
SR leukemia = system: SR leukemia
NCI/ADR-RES ovarian = system: NCI/ADR-RES ovarian
MDA-MB-231 breast = system: MDA-MB-231 breast
SNB-75 CNS = system: SNB-75 CNS
IGROV1 ovarian = system: IGROV1 ovarian
HCC-2998 colon = system: HCC-2998 colon
SNB-19 CNS = system: SNB-19 CNS
M14 melanoma = system: M14 melanoma
SF-268 CNS = system: SF-268 CNS
K-562 leukemia = system: K-562 leukemia
MALME-3M melanoma = system: MALME-3M melanoma
OVCAR-5 ovarian = system: OVCAR-5 ovarian
NCI-H522 lung = system: NCI-H522 lung
SF-539 CNS = system: SF-539 CNS
BT-549 breast = system: BT-549 breast
MOLT-4 leukemia = system: MOLT-4 leukemia
SK-MEL-2 melanoma = system: SK-MEL-2 melanoma
PC-3 prostate = system: PC-3 prostate
HL-60(TB) leukemia = system: HL-60(TB) leukemia
OVCAR-4 ovarian = system: OVCAR-4 ovarian
NCI-H226 lung = system: NCI-H226 lung
EKVX NSCLC = system: EKVX NSCLC
786-0 renal = system: 786-0 renal
MCF7 breast = system: MCF7 breast
MDA-MB-435 = system: MDA-MB-435
SW-620 colon = system: SW-620 colon
T-47D breast = system: T-47D breast
SN12C renal = system: SN12C renal
CAKI-1 renal = system: CAKI-1 renal
NCI-H460 lung = system: NCI-H460 lung
UACC-62 melanoma = system: UACC-62 melanoma
HS 578T breast = system: HS 578T breast
SF-295 CNS = system: SF-295 CNS
OVCAR-8 ovarian = system: OVCAR-8 ovarian
HT29 colon = system: HT29 colon
KM12 colon = system: KM12 colon
HCT-116 colon = system: HCT-116 colon
A549 NSCLC = system: A549 NSCLC
RXF 393 renal = system: RXF 393 renal
ACHN renal = system: ACHN renal
RPMI-8226 leukemia = system: RPMI-8226 leukemia
HOP-92 NSCLC = system: HOP-92 NSCLC
OVCAR-3 ovarian = system: OVCAR-3 ovarian
HOP-62 NSCLC = system: HOP-62 NSCLC
HCT-15 colon = system: HCT-15 colon
SK-MEL-28 melanoma = system: SK-MEL-28 melanoma
UO-31 renal = system: UO-31 renal
COLO 205 colon = system: COLO 205 colon
NCI-H23 lung = system: NCI-H23 lung
U251 CNS = system: U251 CNS
TK-10 renal = system: TK-10 renal
CCRF-CEM leukemia = system: CCRF-CEM leukemia
LOX IMVI melanoma = system: LOX IMVI melanoma

Structure (SMILES): N=C(N)c1ccc(-c2ccc(-c3ccc(Cl)cc3)s2)s1
- GI50 (SK-MEL-5 melanoma): 3160 nM
- TGI (SK-MEL-5 melanoma): 8660 nM
- GI50 (SK-OV-3 ovarian): 1700 nM
- TGI (SK-OV-3 ovarian): 3150 nM
- GI50 (A498 renal): 13000 nM
- TGI (A498 renal): 45300 nM
- GI50 (UACC-257 melanoma): 2780 nM
- TGI (UACC-257 melanoma): 4900 nM
- GI50 (DU-145 prostate): 1620 nM
- TGI (DU-145 prostate): 2980 nM
- GI50 (SR leukemia): 322 nM
- TGI (SR leukemia): > 100000 nM

Structure (SMILES): C[As](C)SCC(COC(=O)c1ccccc1)OC(=O)c1ccccc1 (centres undefined)
- GI50 (NCI/ADR-RES ovarian): 152 nM
- TGI (NCI/ADR-RES ovarian): 367 nM
- GI50 (MDA-MB-231 breast): 463 nM
- TGI (MDA-MB-231 breast): 2970 nM
- GI50 (SNB-75 CNS): 968 nM
- TGI (SNB-75 CNS): 12700 nM
- GI50 (IGROV1 ovarian): 918 nM
- TGI (IGROV1 ovarian): 17100 nM
- GI50 (SK-MEL-5 melanoma): 15 nM
- TGI (SK-MEL-5 melanoma): 67.8 nM
- GI50 (HCC-2998 colon): 104 nM
- TGI (HCC-2998 colon): 232 nM
- GI50 (SNB-19 CNS): 3630 nM
- TGI (SNB-19 CNS): 19600 nM
- GI50 (M14 melanoma): 58.8 nM
- TGI (M14 melanoma): 1860 nM
- GI50 (SF-268 CNS): 344 nM
- TGI (SF-268 CNS): 4420 nM
- GI50 (SK-OV-3 ovarian): 3160 nM
- TGI (SK-OV-3 ovarian): 18100 nM
- GI50 (K-562 leukemia): < 20.5 nM
- TGI (K-562 leukemia): 1220 nM
- TGI (MALME-3M melanoma): 34.5 nM
- GI50 (OVCAR-5 ovarian): 556 nM
- TGI (OVCAR-5 ovarian): 2000 nM
- GI50 (NCI-H522 lung): 83.6 nM
- TGI (NCI-H522 lung): 2920 nM
- GI50 (SF-539 CNS): 271 nM
- TGI (SF-539 CNS): 775 nM
- GI50 (BT-549 breast): 1010 nM
- TGI (BT-549 breast): 6400 nM
- GI50 (MOLT-4 leukemia): 13 nM
- TGI (MOLT-4 leukemia): 154 nM
- GI50 (SK-MEL-2 melanoma): 400 nM
- TGI (SK-MEL-2 melanoma): 2800 nM
- GI50 (A498 renal): 135 nM
- TGI (A498 renal): 1150 nM
- GI50 (PC-3 prostate): 358 nM
- TGI (PC-3 prostate): 15700 nM
- GI50 (HL-60(TB) leukemia): 16.1 nM
- TGI (HL-60(TB) leukemia): 100 nM
- GI50 (OVCAR-4 ovarian): 1740 nM
- TGI (OVCAR-4 ovarian): > 32200 nM
- GI50 (NCI-H226 lung): 1090 nM
- TGI (NCI-H226 lung): 3750 nM
- GI50 (EKVX NSCLC): 1860 nM
- TGI (EKVX NSCLC): 10700 nM
- GI50 (786-0 renal): 100 nM
- TGI (786-0 renal): 556 nM
- GI50 (MCF7 breast): 46.2 nM
- TGI (MCF7 breast): 312 nM
- GI50 (MDA-MB-435): 19.1 nM
- TGI (MDA-MB-435): 66.4 nM
- GI50 (UACC-257 melanoma): 66 nM
- TGI (UACC-257 melanoma): 1510 nM
- GI50 (SW-620 colon): 31.4 nM
- TGI (SW-620 colon): 1660 nM
- GI50 (T-47D breast): 45.2 nM
- TGI (T-47D breast): 3840 nM
- GI50 (SN12C renal): 230 nM
- TGI (SN12C renal): 1230 nM
- GI50 (CAKI-1 renal): < 18.1 nM
- TGI (CAKI-1 renal): 49.9 nM
- GI50 (NCI-H460 lung): 2210 nM
- TGI (NCI-H460 lung): 12100 nM
- GI50 (UACC-62 melanoma): 156 nM
- TGI (UACC-62 melanoma): 1370 nM
- GI50 (HS 578T breast): 627 nM
- TGI (HS 578T breast): 4450 nM
- TGI (SF-295 CNS): 1350 nM
- GI50 (OVCAR-8 ovarian): 225 nM
- TGI (OVCAR-8 ovarian): 667 nM
- GI50 (HT29 colon): 302 nM
- TGI (HT29 colon): 2260 nM
- GI50 (KM12 colon): 384 nM
- TGI (KM12 colon): 7920 nM
- GI50 (HCT-116 colon): 29.2 nM
- TGI (HCT-116 colon): 434 nM
- GI50 (DU-145 prostate): 473 nM
- TGI (DU-145 prostate): 4170 nM
- GI50 (A549 NSCLC): 1450 nM
- TGI (A549 NSCLC): 11300 nM
- GI50 (RXF 393 renal): < 16.9 nM
- TGI (RXF 393 renal): 88.1 nM
- GI50 (ACHN renal): 36.9 nM
- TGI (ACHN renal): 285 nM
- GI50 (RPMI-8226 leukemia): 26.4 nM
- TGI (RPMI-8226 leukemia): 357 nM
- GI50 (HOP-92 NSCLC): 216 nM
- TGI (HOP-92 NSCLC): 1740 nM
- TGI (OVCAR-3 ovarian): 23 nM
- GI50 (HOP-62 NSCLC): 742 nM
- TGI (HOP-62 NSCLC): 1860 nM
- GI50 (HCT-15 colon): 35.7 nM
- TGI (HCT-15 colon): 1400 nM
- GI50 (SK-MEL-28 melanoma): 504 nM
- TGI (SK-MEL-28 melanoma): 17400 nM
- GI50 (SR leukemia): 24.1 nM
- TGI (SR leukemia): 183 nM
- GI50 (UO-31 renal): 763 nM
- TGI (UO-31 renal): 8060 nM
- GI50 (COLO 205 colon): 51.4 nM
- TGI (COLO 205 colon): 1880 nM
- GI50 (NCI-H23 lung): 50 nM
- TGI (NCI-H23 lung): 125 nM
- GI50 (U251 CNS): 1710 nM
- TGI (U251 CNS): 6670 nM
- GI50 (TK-10 renal): 15.9 nM
- TGI (TK-10 renal): 126 nM
- GI50 (CCRF-CEM leukemia): 30.5 nM
- TGI (CCRF-CEM leukemia): 759 nM

Structure (SMILES): CCCCCCc1cc2cc(C(=O)Nc3cccc(C(F)(F)F)c3)c(=N)oc2cc1O
- TGI (NCI/ADR-RES ovarian): 7420 nM
- TGI (MDA-MB-231 breast): 7690 nM
- TGI (SNB-75 CNS): 3010 nM
- TGI (IGROV1 ovarian): 11100 nM
- TGI (SK-MEL-5 melanoma): 2450 nM
- TGI (HCC-2998 colon): 15800 nM
- TGI (SNB-19 CNS): > 44300 nM
- TGI (M14 melanoma): 6180 nM
- TGI (SF-268 CNS): 19100 nM
- TGI (SK-OV-3 ovarian): 10100 nM
- TGI (MALME-3M melanoma): 6200 nM
- TGI (OVCAR-5 ovarian): 69700 nM
- TGI (NCI-H522 lung): 2670 nM
- TGI (SF-539 CNS): 3590 nM
- TGI (BT-549 breast): 6100 nM
- TGI (MOLT-4 leukemia): 4190 nM
- TGI (SK-MEL-2 melanoma): 5680 nM
- TGI (A498 renal): 14000 nM
- TGI (PC-3 prostate): 15100 nM
- TGI (HL-60(TB) leukemia): 6980 nM
- TGI (OVCAR-4 ovarian): 14300 nM
- TGI (NCI-H226 lung): 3520 nM
- TGI (EKVX NSCLC): 11600 nM
- TGI (786-0 renal): 6270 nM
- TGI (MCF7 breast): 6470 nM
- TGI (LOX IMVI melanoma): 3090 nM
- TGI (MDA-MB-435): 5180 nM
- TGI (UACC-257 melanoma): 8950 nM
- TGI (SW-620 colon): > 46100 nM
- TGI (T-47D breast): 1040 nM
- TGI (SN12C renal): 3860 nM
- TGI (CAKI-1 renal): 11500 nM
- TGI (NCI-H460 lung): > 32100 nM
- TGI (UACC-62 melanoma): 6020 nM
- TGI (HS 578T breast): 9990 nM
- TGI (SF-295 CNS): 14100 nM
- TGI (OVCAR-8 ovarian): 3720 nM
- TGI (HT29 colon): > 100000 nM
- TGI (KM12 colon): 10300 nM
- TGI (HCT-116 colon): 4570 nM
- TGI (DU-145 prostate): 3300 nM
- TGI (A549 NSCLC): 10900 nM
- TGI (RXF 393 renal): 2190 nM
- TGI (ACHN renal): > 34700 nM
- TGI (RPMI-8226 leukemia): > 20300 nM
- TGI (HOP-92 NSCLC): 2140 nM
- TGI (OVCAR-3 ovarian): 10700 nM
- TGI (HOP-62 NSCLC): 5030 nM
- TGI (HCT-15 colon): 4360 nM
- TGI (SK-MEL-28 melanoma): 27600 nM
- TGI (SR leukemia): 4370 nM
- TGI (UO-31 renal): > 29200 nM
- TGI (COLO 205 colon): 21000 nM
- TGI (NCI-H23 lung): 1760 nM
- TGI (U251 CNS): 3500 nM
- TGI (TK-10 renal): 46600 nM
